Experimental data from patent US9102701B2, “17-hydroxy-17-pentafluoroethyl-estra-4,9(10)-diene-11-ethynylphenyl derivatives, methods for the production thereof and use thereof for treating diseases” (Bayer Intellectual Property GmbH, priority 2009, dated 2015).
Values after ≈ are worked out from the molar mass of the structure shown. Where two headings read alike, the source gives them in different places.

Columns and labels:
[1] = target: T1, human progesterone receptor B (Homo sapiens, UniProt P06401); assay: Progesterone receptor-antagonistic action in stably transfected SK-N-MC cells, PR-B, MMTV-LUC reporter; type: cell-based; conditions: read-out: IC50 PR-B
T1 construct: expressed in transfected cells; host or cells: SK-N-MC human neuroblastoma cells, stably transfected with pRChPR-B-neo and pMMTV-LUC
T1 sequence (P06401 1-933): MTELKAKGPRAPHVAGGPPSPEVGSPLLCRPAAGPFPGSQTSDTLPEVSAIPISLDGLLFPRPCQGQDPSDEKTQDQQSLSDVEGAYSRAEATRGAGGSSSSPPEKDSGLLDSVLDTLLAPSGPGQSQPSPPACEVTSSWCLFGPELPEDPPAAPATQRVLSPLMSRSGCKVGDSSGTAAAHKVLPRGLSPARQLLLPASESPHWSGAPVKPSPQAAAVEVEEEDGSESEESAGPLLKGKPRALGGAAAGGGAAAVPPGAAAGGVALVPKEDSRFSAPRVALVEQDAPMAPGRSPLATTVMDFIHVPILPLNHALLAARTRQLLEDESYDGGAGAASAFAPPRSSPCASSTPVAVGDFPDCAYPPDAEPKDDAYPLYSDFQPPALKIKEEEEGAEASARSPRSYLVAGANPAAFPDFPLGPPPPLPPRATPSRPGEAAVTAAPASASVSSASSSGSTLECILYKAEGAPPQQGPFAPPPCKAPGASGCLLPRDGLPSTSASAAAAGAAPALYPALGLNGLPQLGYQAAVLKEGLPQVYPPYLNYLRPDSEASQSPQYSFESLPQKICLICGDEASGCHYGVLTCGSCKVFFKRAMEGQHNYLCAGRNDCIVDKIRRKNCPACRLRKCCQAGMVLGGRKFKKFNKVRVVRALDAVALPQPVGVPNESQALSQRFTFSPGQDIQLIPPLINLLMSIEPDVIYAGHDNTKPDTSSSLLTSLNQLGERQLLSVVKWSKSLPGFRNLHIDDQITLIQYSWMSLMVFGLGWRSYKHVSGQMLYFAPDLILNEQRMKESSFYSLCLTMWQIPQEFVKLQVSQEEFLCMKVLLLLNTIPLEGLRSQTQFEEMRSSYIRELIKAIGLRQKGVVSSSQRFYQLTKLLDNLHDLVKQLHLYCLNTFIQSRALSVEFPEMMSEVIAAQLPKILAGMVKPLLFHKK
Procedure, shortened: (§1)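 SK-N-MC neuroblastoma cells stably expressing human PR-A or PR-B plus MMTV-LUC reporter, treated 24 h with compound (0.01 nmol/l upward). Antagonism measured against 0.1 nmol/l promegestone; luciferase in lysates as RLU, given as % efficacy and IC50 (agonism as EC50).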

[2] = Solubility in aqueous medium at pH 7.4; type: physicochemical; conditions: for solubility: aqueous medium, pH 7.4, aqueous buffer
[3] = Metabolic stability in human liver microsomes; type: in vitro ADME; conditions: predicted in vivo clearance from liver microsomes, well-stirred model, 1 μM
Experimental: Determination of Metabolic Stability in Human and Rat Liver Microsomes
Isolated Human Liver Microsomes (HLM) were Used to Assess the Metabolic Stability of compounds of general formula I.
The incubations were conducted with 2.4 ml of HLM solution (protein content 0.5 mg/ml), 30 μl of the test compound (final concentration 1 μM) and 0.6 ml of the cofactor mixture (═NADPH-generating system composed of 3 IU glucose-6-phosphate dehydrogenase, 14.6 mg glucose-6-phosphate, 1.2 mg NADP) at 37° C. in 100 mM phosphate buffer at pH 7.4. Samples were taken at 6 time points (2-60 min) and precipitated with an equal volume of methanol, and the recovery of the test substances used in the supernatant was determined by LC-MS/MS analysis. The half-life of substance degradation determined therefrom was used to calculate what is called the intrinsic clearance of the substance in the liver microsome preparation.

[4] = target: T2, human progesterone receptor A (Homo sapiens, UniProt P06401); assay: Progesterone receptor-antagonistic action in stably transfected SK-N-MC cells, PR-A, MMTV-LUC reporter; type: cell-based; conditions: read-out: IC50 PR-A
T2 construct: expressed in transfected cells; host or cells: SK-N-MC human neuroblastoma cells, stably transfected with pRChPR-A-neo and pMMTV-LUC
T2 sequence (P06401 1-769 isoform P06401-2): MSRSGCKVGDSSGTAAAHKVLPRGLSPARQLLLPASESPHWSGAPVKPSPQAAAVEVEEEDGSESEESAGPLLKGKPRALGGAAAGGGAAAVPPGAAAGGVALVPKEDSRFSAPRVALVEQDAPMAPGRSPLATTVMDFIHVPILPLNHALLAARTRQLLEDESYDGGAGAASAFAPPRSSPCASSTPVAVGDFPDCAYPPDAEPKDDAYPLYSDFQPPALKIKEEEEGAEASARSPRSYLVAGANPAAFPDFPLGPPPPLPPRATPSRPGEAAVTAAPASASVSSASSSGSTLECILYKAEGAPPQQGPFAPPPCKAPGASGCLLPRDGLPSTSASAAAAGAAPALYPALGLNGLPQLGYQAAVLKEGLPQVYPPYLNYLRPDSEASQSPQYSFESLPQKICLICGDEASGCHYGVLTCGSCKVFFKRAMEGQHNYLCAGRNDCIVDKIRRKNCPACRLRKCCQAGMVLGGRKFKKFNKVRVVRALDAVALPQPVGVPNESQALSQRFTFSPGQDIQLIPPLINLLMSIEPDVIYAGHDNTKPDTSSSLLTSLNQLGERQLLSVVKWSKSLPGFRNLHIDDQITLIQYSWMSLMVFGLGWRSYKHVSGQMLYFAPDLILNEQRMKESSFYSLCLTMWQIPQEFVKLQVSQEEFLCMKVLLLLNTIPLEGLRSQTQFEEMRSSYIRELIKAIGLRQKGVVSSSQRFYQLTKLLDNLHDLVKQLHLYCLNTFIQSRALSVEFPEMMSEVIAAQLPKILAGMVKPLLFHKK
Procedure, shortened: as §1

SMILES	IC50 [1]	solubility (in words) ([2]; aqueous medium under physiological conditions)	solubility [2]	Predicted clearance Human [3]	IC50 [4]	IC50 ([4]; antagonistic potency vs 0.1 nmol/l promegestone, SK-N-MC cells, 24 hours)
C[C@]12C[C@H](c3ccc(C#CC(=O)O)cc3)C3=C4CCC(=O)C=C4CCC3C1CC[C@@]2(O)C(F)(F)C(F)(F)F (stereo partly drawn) [Example 2, [4-((8S,11R,13S,14S,17S)-17-hydroxy-13-methyl-3-oxo-17-pentafluoroethyl-2,3,6,7,8,11,12,13,14,15,16,17-dodecahydro-4H-cyclopenta[a]phenanthren-11-yl)phenyl]propynoic acid]	16 nM	improved solubility	178 µg/mL (≈ 333 µM)	0 mL/min/kg	32 nM	–
C[C@]12C[C@H](c3ccc(C#C/C=C\C#N)cc3)C3=C4CCC(=O)C=C4CCC3C1CC[C@@]2(O)C(F)(F)C(F)(F)F (stereo partly drawn) [Example 5, (Z)-5-[4-((8S,11R,13S,14S,17S)-17-hydroxy-13-methyl-3-oxo-17-pentafluoroethyl-2,3,6,7,8,11,12,13,14,15,16,17-dodecahydro-1H-cyclopenta[a]phenanthren-1′-yl)phenyl]pent-2-en-4-ynenitrile]	0.76 nM	–	8 µg/mL (≈ 14.8 µM)	2.83 mL/min/kg	0.72 nM	–
C[C@]12C[C@H](c3ccc(C#CCOC(=O)NCc4ccccc4)cc3)C3=C4CCC(=O)C=C4CCC3C1CC[C@@]2(O)C(F)(F)C(F)(F)F (stereo partly drawn) [Example 50, benzylcarbamic acid 3-[4-((8S,11R,13S,14S,17S)-17-hydroxy-13-methyl-3-oxo-17-pentafluoroethyl-2,3,6,7,8,11,12,13,14,15,16,17-dodecahydro-1H-cyclopenta[a]phenanthren-1′-yl)phenyl]prop-2-ynyl ester]	0.03 nM	–	–	–	0.01 nM	–
C[C@]12C[C@H](c3ccc(C#Cc4cccc(S(C)(=O)=O)c4)cc3)C3=C4CCC(=O)C=C4CC[C@H]3[C@@H]1CC[C@@]2(O)C(F)(F)C(F)(F)F [Example 51, (8S,11R,13S,14S,17S)-17-hydroxy-11-[4-(3-methanesulphonylphenylethynyl)phenyl]-13-methyl-17-pentafluoroethyl-1,2,6,7,8,11,12,13,14,15,16,17-dodecahydrocyclopenta[a]phenanthren-3-one]	0.1 nM	–	–	–	0.08 nM	–
COc1ccc(NC(=O)OCC#Cc2ccc([C@H]3C[C@@]4(C)C(CC[C@@]4(O)C(F)(F)C(F)(F)F)C4CCC5=CC(=O)CCC5=C43)cc2)cc1 (stereo partly drawn) [Example 52, 4-methoxyphenylcarbamic acid 3-[4-((8S,11R,13S,14S,17S)-17-hydroxy-13-methyl-3-oxo-17-pentafluoroethyl-2,3,6,7,8,11,12,13,14,15,16,17-dodecahydro-1H-cyclopenta[a]phenanthren-1′-yl)phenyl]prop-2-ynyl ester]	0.07 nM	–	–	–	0.01 nM	–
CCOC(=O)c1ccc(NC(=O)OCC#Cc2ccc([C@H]3C[C@@]4(C)[C@@H](CC[C@@]4(O)C(F)(F)C(F)(F)F)[C@@H]4CCC5=CC(=O)CCC5=C43)cc2)cc1 [Example 53, 4-{3-[4-((8S,11R,13S,14S,17S)-17-hydroxy-13-methyl-3-oxo-17-pentafluoroethyl-2,3,6,7,8,11,12,13,14,15,16,17-dodecahydro-1H-cyclopenta[a]phenanthren-11-yl)phenyl]prop-2-ynyloxycarbonylamino}benzoic acid ethyl ester]	0.19 nM	–	–	–	0.16 nM	–
C[C@]12C[C@H](c3ccc(C#CCOC(=O)Nc4ccc(N5CCCCC5)cc4)cc3)C3=C4CCC(=O)C=C4CCC3C1CC[C@@]2(O)C(F)(F)C(F)(F)F (stereo partly drawn) [Example 54, (4-piperidin-1-ylphenyl)carbamic acid 3-[4-((8S,11R,13S,14S,17S)-17-hydroxy-13-methyl-3-oxo-17-pentafluoroethyl-2,3,6,7,8,11,12,13,14,15,16,17-dodecahydro-1H-cyclopenta[a]phenanthren-1′-yl)phenyl]prop-2-ynyl ester]	0.09 nM	–	–	–	0.1 nM	–

Other lines, results leading:

IC50 [1]	solubility (in words) ([2]; aqueous medium under physiological conditions)	solubility [2]	Predicted clearance Human [3]	IC50 [4]	IC50 ([4]; antagonistic potency vs 0.1 nmol/l promegestone, SK-N-MC cells, 24 hours)	SMILES
0.2 nM	–	–	–	0.26 nM	–	C[C@]12C[C@H](c3ccc(C#CCOC(=O)Nc4ccc(Cl)cc4)cc3)C3=C4CCC(=O)C=C4CCC3C1CC[C@@]2(O)C(F)(F)C(F)(F)F (stereo partly drawn) [Example 55, 4-chlorophenylcarbamic acid 3-[4-((8S,11R,13S,14S,17S)-17-hydroxy-13-methyl-3-oxo-17-pentafluoroethyl-2,3,6,7,8,11,12,13,14,15,16,17-dodecahydro-1H-cyclopenta[a]phenanthren-1′-yl)phenyl]prop-2-ynyl ester]
0.08 nM	–	–	–	–	0.01 nM	C[C@]12C[C@H](c3ccc(C#Cc4ccc(S(C)(=O)=O)cc4)cc3)C3=C4CCC(=O)C=C4CC[C@H]3[C@@H]1CC[C@@]2(O)C(F)(F)C(F)(F)F [Example 56, (8S,11R,13S,14S,17S)-17-hydroxy-11-[4-(4-methanesulphonylphenylethynyl)phenyl]-13-methyl-17-pentafluoroethyl-1,2,6,7,8,11,12,13,14,15,16,17-dodecahydrocyclopenta[a]phenanthren-3-one]
0.08 nM	–	–	–	0.01 nM	–	C[C@]12C[C@H](c3ccc(C#CCOC(=O)Nc4cccnc4)cc3)C3=C4CCC(=O)C=C4CC[C@H]3[C@@H]1CC[C@@]2(O)C(F)(F)C(F)(F)F [Example 57, 3-pyridylcarbamic acid 3-[4-((8S,11R,13S,14S,17S)-17-hydroxy-13-methyl-3-oxo-17-pentafluoroethyl-2,3,6,7,8,11,12,13,14,15,16,17-dodecahydro-1H-cyclopenta[a]phenanthren-1′-yl)phenyl]prop-2-ynyl ester]
0.01 nM	–	–	–	0.09 nM	–	CC(C)(C)NC(=O)OCC#Cc1ccc([C@H]2C[C@@]3(C)C(CC[C@@]3(O)C(F)(F)C(F)(F)F)C3CCC4=CC(=O)CCC4=C32)cc1 (stereo partly drawn) [Example 58, tert-butylcarbamic acid 3-[4-((8S,11R,13S,14S,17S)-17-hydroxy-13-methyl-3-oxo-17-pentafluoroethyl-2,3,6,7,8,11,12,13,14,15,16,17-dodecahydro-1H-cyclopenta[a]phenanthren-1′-yl)phenyl]prop-2-ynyl ester]
1.2 nM	–	–	–	0.7 nM	–	CC(C)(C)c1ccc(NC(=O)OCC#Cc2ccc([C@H]3C[C@@]4(C)C(CC[C@@]4(O)C(F)(F)C(F)(F)F)C4CCC5=CC(=O)CCC5=C43)cc2)cc1 (stereo partly drawn) [Example 59, 4-tert-butylphenylcarbamic acid 3-[4-((8S,11R,13S,14S,17S)-17-hydroxy-13-methyl-3-oxo-17-pentafluoroethyl-2,3,6,7,8,11,12,13,14,15,16,17-dodecahydro-1H-cyclopenta[a]phenanthren-1′-yl)phenyl]prop-2-ynyl ester]
